Laboratory results as given in US20100120858A1, “Piperidine Derivatives” (Pfizer Inc., priority 2006, published 2010).

Experiments:
[1] = biological target: human norepinephrine transporter (Homo sapiens, UniProt P23975); test: Human norepinephrine (hNET) receptor binding, [125I]-RTI-55; conditions: membranes of HEK-293 cells transfected with human norepinephrine transporter cDNA; 50 pM [125I]-RTI-55; IC50 converted by Cheng-Prusoff
Procedure, shortened: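 Membranes from HEK-293 cells expressing human NET, incubated 90 min at room temperature with 50 pM [125I]-RTI-55 and compound (10^−5 to 10^−12 M) in Krebs-HEPES pH 7.4. Nonspecific binding defined with 10 μM desipramine; filter-bound counts gave IC50, converted to Ki by Cheng-Prusoff.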

[2] = biological target: human serotonin transporter (Homo sapiens, UniProt P31645); test: Human serotonin (hSERT) receptor binding, [125I]-RTI-55; conditions: membranes of HEK-293 cells transfected with human serotonin transporter cDNA, IC50 converted by Cheng-Prusoff
Sequence of human serotonin transporter (P31645 whole entry): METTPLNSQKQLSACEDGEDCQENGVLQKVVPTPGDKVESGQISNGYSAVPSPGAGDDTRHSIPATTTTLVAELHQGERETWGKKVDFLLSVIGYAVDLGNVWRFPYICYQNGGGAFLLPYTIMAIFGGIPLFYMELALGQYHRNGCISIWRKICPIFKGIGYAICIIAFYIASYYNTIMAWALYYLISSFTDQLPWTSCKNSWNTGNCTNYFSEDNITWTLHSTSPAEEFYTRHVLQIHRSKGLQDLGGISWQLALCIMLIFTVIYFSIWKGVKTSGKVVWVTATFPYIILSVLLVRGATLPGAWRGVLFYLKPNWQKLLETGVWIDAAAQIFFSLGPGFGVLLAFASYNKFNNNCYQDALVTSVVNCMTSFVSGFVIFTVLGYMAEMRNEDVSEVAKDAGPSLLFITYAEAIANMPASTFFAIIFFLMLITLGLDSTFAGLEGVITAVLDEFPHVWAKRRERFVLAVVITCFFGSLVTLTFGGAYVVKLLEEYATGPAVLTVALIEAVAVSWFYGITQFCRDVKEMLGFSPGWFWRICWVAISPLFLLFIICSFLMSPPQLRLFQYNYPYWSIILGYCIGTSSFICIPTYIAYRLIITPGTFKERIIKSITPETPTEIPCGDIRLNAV
Procedure, shortened: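 Membranes from HEK-293 cells expressing human SERT were incubated 90 min at room temperature in Krebs-HEPES buffer pH 7.4 with […] [125I]-RTI-55 and compound (10^−5 to 10^−12 M), in duplicate. Nonspecific binding defined with 10 μM citalopram; IC50 converted to Ki by Cheng-Prusoff.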

Sequence of human norepinephrine transporter (P23975 whole entry): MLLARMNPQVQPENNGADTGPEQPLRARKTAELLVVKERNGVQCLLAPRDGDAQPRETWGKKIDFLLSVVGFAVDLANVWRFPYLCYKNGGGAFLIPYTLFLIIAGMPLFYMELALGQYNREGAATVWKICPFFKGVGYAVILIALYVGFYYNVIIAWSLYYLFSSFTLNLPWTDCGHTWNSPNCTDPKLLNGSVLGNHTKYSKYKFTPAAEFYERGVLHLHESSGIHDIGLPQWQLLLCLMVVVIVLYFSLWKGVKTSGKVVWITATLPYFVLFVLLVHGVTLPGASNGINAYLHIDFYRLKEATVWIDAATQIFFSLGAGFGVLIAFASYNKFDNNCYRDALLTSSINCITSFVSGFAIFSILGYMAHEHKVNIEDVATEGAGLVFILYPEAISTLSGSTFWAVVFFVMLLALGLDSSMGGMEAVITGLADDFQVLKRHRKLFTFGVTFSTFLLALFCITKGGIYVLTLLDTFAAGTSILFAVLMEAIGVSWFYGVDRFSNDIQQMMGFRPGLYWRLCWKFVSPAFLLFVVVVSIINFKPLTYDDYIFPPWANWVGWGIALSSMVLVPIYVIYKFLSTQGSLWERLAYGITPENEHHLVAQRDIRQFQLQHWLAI

| Ki [1] [nM] | Ki [2] [nM] | melting point | Compound |
| --- | --- | --- | --- |
| 4 | 6300 | 128 to 129 °C | Clc1cccc(Oc2ncccc2OC[C@H]2CCCNC2)c1.O=C(O)/C=C/C(=O)O [Example 59, (S)-2-(3-chloro-phenoxy)-3-(piperidin-3-ylmethoxy)-pyridine fumaric acid] |
| 2 | 6600 | 148 to 150 °C | Fc1ccc(Oc2ncccc2OC[C@H]2CCCNC2)cc1F.O=C(O)/C=C/C(=O)O [Example 60, (S)-2-(3,4-difluoro-phenoxy)-3-(piperidin-3-ylmethoxy)-pyridine fumaric acid] |
| 140 | 803 | 130 to 131 °C | Fc1ccc(Oc2ncccc2OC[C@@H]2CCCNC2)cc1F.O=C(O)/C=C/C(=O)O [Example 63, (R)-2-(3,4-difluoro-phenoxy)-3-(piperidin-3-ylmethoxy)-pyridine fumaric acid] |
| 7 | 2200 | 169 to 170 °C | Cc1ccc(Oc2ncccc2OC[C@H]2CCCNC2)cc1C.O=C(O)/C=C/C(=O)O [Example 65, (S)-2-(3,4-dimethyl-phenoxy)-3-(piperidin-3-ylmethoxy)-pyridine fumaric acid] |
| 20 | 2900 | 143 to 144 °C (dec.) | Fc1ccc(Oc2ncccc2OC[C@H]2CCCNC2)cc1Cl.O=C(O)/C=C/C(=O)O [Example 66, (S)-2-(3-chloro-4-fluoro-phenoxy)-3-(piperidin-3-ylmethoxy)-pyridine fumaric acid] |
| 6 | 3300 | 136 to 138 °C | Cc1cc(Oc2ncccc2OC[C@H]2CCCNC2)ccc1F.O=C(O)/C=C/C(=O)O [Example 67, (S)-2-(4-fluoro-3-methyl-phenoxy)-3-(piperidin-3-ylmethoxy)-pyridine fumaric acid] |
| 6 | 5800 | 130 to 132 °C | Cc1cccc(Oc2ncccc2OC[C@H]2CCCNC2)c1.O=C(O)/C=C/C(=O)O [Example 68, (S)-2-(3-methyl-phenoxy)-3-(piperidin-3-ylmethoxy)-pyridine fumaric acid] |
| 4 | 5500 | 150 to 151 °C | Fc1cc(Oc2ncccc2OC[C@H]2CCCNC2)ccc1Cl.O=C(O)/C=C/C(=O)O [Example 69, (S)-2-(4-chloro-3-fluoro-phenoxy)-3-(piperidin-3-ylmethoxy)-pyridine fumaric acid] |
| 102 | 9700 | 144 to 146 °C | FC(F)(F)Oc1cccc(Oc2ncccc2OC[C@H]2CCCNC2)c1.O=C(O)/C=C/C(=O)O [Example 70, (S)-3-(piperidin-3-ylmethoxy)-2-(3-trifluoromethoxy-phenoxy)-pyridine fumaric acid] |
| 2 | 6600 | 189 to 190 °C (dec.) | Fc1ccc(Oc2ncccc2OC[C@H]2CCCNC2)c(Cl)c1.O=C(O)/C=C/C(=O)O [Example 71, (S)-2-(2-chloro-4-fluoro-phenoxy)-3-(piperidin-3-ylmethoxy)-pyridine fumaric acid] |
| 2 | 3300 | 182 to 183 °C (dec.) | Fc1cccc(F)c1Oc1ncccc1OC[C@H]1CCCNC1.O=C(O)/C=C/C(=O)O [Example 72, (S)-2-(2,6-difluoro-phenoxy)-3-(piperidin-3-ylmethoxy)-pyridine fumaric acid] |
| 4 | > 10000 | 165 to 167 °C (dec.) | Cc1ccccc1Oc1ncccc1OC[C@H]1CCCNC1.O=C(O)/C=C/C(=O)O [Example 73, (S)-2-(2-methyl-phenoxy)-3-(piperidin-3-ylmethoxy)-pyridine fumaric acid] |
| 11 | > 10000 | 129 to 134 °C (dec.) | CC(C)Oc1ccccc1Oc1ncccc1OC[C@H]1CCCNC1.O=C(O)/C=C/C(=O)O [Example 74, (S)-2-(2-isopropoxy-phenoxy)-3-(piperidin-3-ylmethoxy)-pyridine fumaric acid] |
